The values below come from patent publication US20120207763A1, “PYRROLOPYRIMIDINE COMPOUNDS AND THEIR USES” (ASTEX THERAPEUTICS LIMITED, priority 2006, published 2012).

Read-outs that look alike come from different tables or passages of the source.

What all share (assay type): biochemical
The target in assay [1] is CDK4/Cyclin-D1 kinase complex (Homo sapiens, UniProt P11802). As to the kind of experiment: CDK4 ELISA based assay, Rb Ser780 phosphorylation. The source says:
The compounds that inhibit the CDK4 kinase activity would inhibit the signal output of the assay.
A general note: In an ELISA, binding on a coated surface is turned into a signal by an enzyme label.

For assay [2], the target named is CDK2/Cyclin-A kinase complex (Homo sapiens, UniProt P24941). Put plainly: CDK2 IMAP fluorescence polarization assay. The essentials: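 Fluorescence polarization (IMAP) using purified active CDK2/Cyclin-A complex with a TAMRA-tagged Histone H1-derived peptide substrate; phosphorylated peptide bound by a metal-containing reagent raises polarization. Inhibition read as reduced fluorescence polarization signal.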
A general note: Polarisation of emitted light reports the rotation of a fluorescent probe.

The target of assay [3] is CDK4 (Homo sapiens, UniProt P11802). Put plainly: CDK4 HTRF assay. The settings on record: Table E; read-out: CDK4 HTRF/IC50 [umol l − 1]. (Time-resolved FRET reads energy transfer from a long-lived donor to a nearby acceptor.)
CDK4, sequence (P11802 whole entry): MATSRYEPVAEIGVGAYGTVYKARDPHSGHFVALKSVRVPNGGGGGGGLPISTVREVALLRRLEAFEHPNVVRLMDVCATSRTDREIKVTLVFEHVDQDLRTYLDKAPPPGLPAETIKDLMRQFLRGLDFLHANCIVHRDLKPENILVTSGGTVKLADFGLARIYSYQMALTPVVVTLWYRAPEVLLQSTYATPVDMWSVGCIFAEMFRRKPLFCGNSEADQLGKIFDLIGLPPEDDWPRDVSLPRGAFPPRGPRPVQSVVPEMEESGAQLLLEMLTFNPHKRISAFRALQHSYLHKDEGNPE
CDK4, sequence (P24385 whole entry partner): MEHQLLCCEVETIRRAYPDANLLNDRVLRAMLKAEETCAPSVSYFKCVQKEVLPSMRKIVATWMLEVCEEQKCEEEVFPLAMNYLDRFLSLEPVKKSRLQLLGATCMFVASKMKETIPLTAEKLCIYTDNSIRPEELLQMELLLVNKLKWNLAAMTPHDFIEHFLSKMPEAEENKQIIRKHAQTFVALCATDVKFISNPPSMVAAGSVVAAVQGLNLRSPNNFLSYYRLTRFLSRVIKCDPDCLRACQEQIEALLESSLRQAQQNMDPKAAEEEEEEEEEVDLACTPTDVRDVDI
Assay [4] addresses hCDK1/B (Homo sapiens, UniProt P06493). Put plainly: hCDK1/B assay. The settings on record: Table E; read-out: hCDK1/B/IC50 [umol l − 1].
[5] abbreviates: Table E, read-out: CDK4 ELISA assay IC50 [umol l−].
Setting [6] is: Table E, read-out: CDK2cyA IMAP/IC50 [umol l − 1].

hCDK1/B, sequence (P06493 whole entry): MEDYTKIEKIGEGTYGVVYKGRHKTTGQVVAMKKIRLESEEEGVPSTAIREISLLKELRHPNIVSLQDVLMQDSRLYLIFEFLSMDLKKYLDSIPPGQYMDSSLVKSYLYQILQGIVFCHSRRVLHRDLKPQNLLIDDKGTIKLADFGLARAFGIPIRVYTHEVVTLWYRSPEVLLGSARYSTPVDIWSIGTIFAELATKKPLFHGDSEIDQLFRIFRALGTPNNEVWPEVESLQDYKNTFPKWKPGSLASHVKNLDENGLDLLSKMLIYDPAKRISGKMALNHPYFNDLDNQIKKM
hCDK1/B, sequence (P14635 whole entry partner): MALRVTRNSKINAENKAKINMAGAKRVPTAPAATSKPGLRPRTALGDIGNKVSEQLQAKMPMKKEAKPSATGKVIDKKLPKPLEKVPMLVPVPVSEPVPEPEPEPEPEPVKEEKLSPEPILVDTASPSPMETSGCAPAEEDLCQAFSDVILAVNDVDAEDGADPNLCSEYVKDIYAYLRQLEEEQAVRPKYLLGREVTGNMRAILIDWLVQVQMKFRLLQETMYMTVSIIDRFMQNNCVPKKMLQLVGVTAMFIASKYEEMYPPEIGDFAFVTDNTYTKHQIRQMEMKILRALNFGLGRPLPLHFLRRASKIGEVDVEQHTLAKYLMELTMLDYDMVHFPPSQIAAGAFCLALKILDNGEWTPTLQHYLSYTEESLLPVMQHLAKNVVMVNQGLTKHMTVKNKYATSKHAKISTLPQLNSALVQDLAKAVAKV
CDK4/Cyclin-D1 kinase complex, sequence (P11802 whole entry): as the sequence (P11802 whole entry) above
CDK4/Cyclin-D1 kinase complex, sequence (P24385 whole entry partner): as the sequence (P24385 whole entry partner) above

In the case of `CCC(CC)n1ccc2cnc(NC3CCCC3)nc21` [Example 210], the IC50 in assay [1] (setting [5]) was above 10 µM.

Consider `Cc1cn(C2CCCC2)c2nc(Nc3ccc(N4CCNCC4)cc3)ncc12` [drawing 150], for which the IC50 in assay [1] (Table C, read-out: CDK4 IC50) was below 10 µM.

Take `CCC(CC)n1ccc2cnc(NC3CC3)nc21` [Example 218]: in assay [1] (setting [5]), the IC50 is above 10 µM.

Take `CC1(C)C(=O)N(C2CCCC2)c2nc(Nc3ccc(N4CCNCC4)cn3)ncc21`: the IC50 in assay [1] (Table C, read-out: CDK4 IC50) was below 10 µM.

With `CCC(CC)n1c(C)cc2cnc(Nc3ccc(C(=O)NC4CCCC4)cc3)nc21` [Example 331], the values for the IC50 in assay [1] (setting [5]) and in assay [2] (setting [6]) were above 10 µM and below 1 µM, respectively.

As to `CCC(CC)n1ccc2cnc(Nc3cccc(OCCn4ccnc4)c3)nc21` [Example 213], the IC50 is below 10 µM in assay [1] (setting [5]) and below 1 µM in assay [2] (setting [6]).

For `CCC(CC)N1C(=O)C(C)(C)c2cnc(Nc3ccc(N4CCN(C(C)=O)CC4)cn3)nc21`, the IC50 in assay [1] (Table C, read-out: CDK4 IC50) was above 10 µM; in assay [2] (Table C, read-out: CDK2 IC50), above 10 µM.

With `CCC(CC)n1c(COC)cc2cnc(Nc3ccc(N4CCN(C(C)=O)CC4)cc3)nc21` [Example 379], the IC50 in assay [1] (setting [5]) and in assay [2] (setting [6]) was above 10 µM each time.

For `CCC(CC)n1ccc2cnc(Nc3ccc(C(=O)N4CCOCC4)cc3)nc21` [Example 212], the IC50 in assay [1] (setting [5]) is below 10 µM; in assay [2] (setting [6]) it was below 1 µM.

For `CCC(CC)N1C(=O)Cc2cnc(Nc3ccc(N4CCNCC4)cn3)nc21`, the IC50 in assay [1] (Table C, read-out: CDK4 IC50) was above 10 µM; in assay [2] (Table C, read-out: CDK2 IC50), below 10 µM.

With `CCOC(OCC)c1cc2cnc(Nc3ccc(N4CCN(C(C)=O)CC4)cc3)nc2n1C(CC)CC` [Example 360, 1-(4-{4-[6-Diethoxymethyl-7-(1-ethyl-propyl)-7H-pyrrolo[2,3-d]pyrimidin-2-ylamino]-phenyl}-piperazin-1-yl)-ethanone], the IC50 in assay [1] (setting [5]) and in assay [2] (setting [6]) was above 10 µM throughout.

Regarding `CCC(CC)n1c(C)cc2cnc(Nc3ccc(N4CCN(C(C)=O)CC4)cc3)nc21` [Example 330], the IC50 is above 10 µM in assay [1] (setting [5]) and below 1 µM in assay [2] (setting [6]).

On to `CCC(CC)N1C(=O)C(C)(C)c2cnc(Nc3ccc(N4CCNCC4)cc3)nc21` [drawing 162], for which, in assay [1] (Table C, read-out: CDK4 IC50), the IC50 is below 10 µM.

With `CCC(CC)n1ccc2cnc(Nc3ccc(C(=O)NC4CCCC4)cc3)nc21` [Example 217], the IC50 in assay [1] (setting [5]) is above 10 µM.

`CCC(CC)n1ccc2cnc(Nc3ccc(N4CCN(C)CC4)cn3)nc21` [Example 207]: the IC50 is below 10 µM in assay [1] (setting [5]) and above 10 µM in assay [2] (setting [6]).

Consider `Cc1cn(C2CCCCC2)c2nc(Nc3ccc(N4CCN(C)CC4)cc3)ncc12` [Example 269], for which the IC50 is below 10 µM in assay [1] (setting [5]) and above 10 µM in assay [2] (setting [6]).

Take `CCC(CC)n1ccc2cnc(Nc3ccc(C4CCN(C(C)=O)CC4)cc3)nc21` [Example 214]: the IC50 was below 10 µM in assay [1] (setting [5]) and above 10 µM in assay [2] (setting [6]).

With `CCC(CC)n1cc(C)c2cnc(Nc3ccc(N4CCN(C(C)=O)CC4)cc3)nc21` [Example 263, 1-(4-{4-[7-(1-Ethyl-propyl)-5-methyl-7H-pyrrolo[2,3-d]pyrimidin-2-ylamino]-phenyl}-piperazin-1-yl)-ethanone], the IC50 in assay [1] (setting [5]) and in assay [2] (setting [6]) was above 10 µM each time.

As for `CCC(CC)n1cc(C(=O)OC)c2cnc(Nc3ccc(N4CCN(C(C)=O)CC4)cc3)nc21` [Example 428], the IC50 in assay [1] (setting [5]) was above 10 µM.

Take `CCC(CC)n1cc(C)c2cnc(Nc3ccc(N4CCN(C)CC4)cc3)nc21` [Example 264]: the IC50 in assay [1] (setting [5]) and in assay [2] (setting [6]) was above 10 µM in each case.

Take `CCC(CC)N1C(=O)C(C)(C)c2cnc(Nc3ccc(N4CCN(C(=O)OC(C)(C)C)CC4)cc3)nc21`: the IC50 in assay [1] (Table C, read-out: CDK4 IC50) is above 10 µM.

As to `Cc1cn(C2CCCC2)c2nc(Nc3nccc4ccccc34)ncc12` [Example 303], the IC50 was above 10 µM in assay [2] (setting [6]), above 10000 nM in assay [3] and above 10 µM in assay [4].

Regarding `CCC(CC)n1c(C)cc2cnc(Nc3ccc(N4CCNCC4)cc3)nc21` [Example 329, [7-(1-Ethyl-propyl)-6-methyl-7H-pyrrolo[2,3-d]pyrimidin-2-yl]-(4-piperazin-1-yl-phenyl)-amine], the IC50 was above 10 µM in assay [1] (setting [5]) and below 1 µM in assay [2] (setting [6]).

As to `Cc1cn(C2CCCC2)c2nc(Nc3ccc(N4CCOCC4)cc3)ncc12` [Example 305], the figures for the IC50 in assay [2] (setting [6]), in assay [3] and in assay [4] were below 10 µM, above 10000 nM and below 10 µM, respectively.

On to `CC(=O)N1CCN(c2ccc(Nc3ncc4ccn(C5CCC(C)C5)c4n3)cc2)CC1` (centres unmarked) [Example 238], for which the IC50 in assay [2] (setting [6]) is below 10 µM; in assay [3], below 1000 nM; in assay [4], below 10 µM.

As to `CCC(CC)n1c(COC)cc2cnc(Nc3ccc(C(=O)NC4CCCC4)cc3)nc21` [Example 380], the IC50 in assay [1] (setting [5]) was above 10 µM.

Regarding `Cc1noc(-c2c(C)c3cnc(Nc4ccc(N5CCNCC5)cn4)nc3n2C2CCCC2)n1` [Example 407], the IC50 in assay [2] (setting [6]) was below 10 µM; in assay [3], below 1000 nM; in assay [4], below 10 µM.

With `CCC(C)n1c(C#N)c(C)c2cnc(Nc3ccc(N4CCC(N(C)C)CC4)cc3)nc21` (centres unmarked) [Example 396], the IC50 in assay [2] (setting [6]) is below 1 µM; in assay [3], below 1000 nM; in assay [4] it was below 1 µM.

Turning to `OC[C@@H]1CCC(n2ccc3cnc(Nc4ccc(N5CCNCC5)cc4)nc32)C1` (some centres unmarked) [Example 250], the figures for the IC50 in assay [2] (setting [6]), in assay [3] and in assay [4] were below 1 µM, below 1000 nM and below 1 µM, respectively.

Take `Cc1cn(C2CCCC2)c2nc(Nc3ccc(CCN4CCOCC4)cc3)ncc12` [Example 291]: the figures for the IC50 in assay [2] (setting [6]), in assay [3] and in assay [4] were above 10 µM, below 1000 nM and below 10 µM, respectively.

As to `CCC(CC)n1ccc2cnc(Nc3ccc(N4CCN(C(C)=O)CC4)cn3)nc21` [Example 206], the IC50 in assay [1] (setting [5]) and in assay [2] (setting [6]) was above 10 µM each time.

As to `Cc1n[nH]c(-c2c(C)c3cnc(Nc4ccc(N5CCNCC5)cn4)nc3n2C2CCCC2)n1` [Example 406], the IC50 in assay [2] (setting [6]) was above 10 µM; in assay [3], below 1000 nM; in assay [4], above 10 µM.

Consider `CCC(CC)n1cc(C(=O)OC)c2cnc(Nc3ccc(N4CCNCC4)cc3)nc21` [Example 429], for which the IC50 in assay [1] (setting [5]) was above 10 µM.

On to `Cc1cn(C2CCCC2)c2nc(Nc3ccncn3)ncc12` [Example 304], for which the IC50 was above 10 µM in assay [2] (setting [6]), above 10000 nM in assay [3] and above 10 µM in assay [4].

Take `Cc1cn(C2CCCC2)c2nc(Nc3ccc(CN4CCNCC4)cc3)ncc12` [Example 314]: the results for the IC50 in assay [2] (setting [6]), in assay [3] and in assay [4] were below 10 µM, below 1000 nM and below 10 µM, respectively.

Consider `CCC(CC)n1c(C(=O)N(C)C)cc2cnc(Nc3ccc(CN4CCN(C(=O)OC(C)(C)C)CC4)cc3)nc21` [Example 465], for which the figures for the IC50 in assay [2] (setting [6]), in assay [3] and in assay [4] were below 10 µM, below 1000 nM and below 10 µM, respectively.

Regarding `c1cc2cn[nH]c2cc1Nc1ncc2ccn(C3CCCC3)c2n1` [Example 257], the IC50 in assay [1] (setting [5]) and in assay [2] (setting [6]) was below 10 µM in each case.

On to `CCC(CC)n1c(C(=O)NC)cc2cnc(Nc3ccc(N4CCNCC4)cc3)nc21` [Example 346], for which the IC50 was below 10 µM in assay [2] (setting [6]), below 1000 nM in assay [3] and below 10 µM in assay [4].

For the compound `CCC(CC)n1ccc2cnc(Nc3ccc(C4CCCNC4)cc3)nc21` (centres unmarked) [Example 211], the IC50 in assay [1] (setting [5]) and in assay [2] (setting [6]) was below 10 µM each time.

Consider `Cc1nnc(-c2c(C)c3cnc(Nc4ccc(N5CCNCC5)cn4)nc3n2C2CCCC2)o1` [Example 386, [7-Cyclopentyl-5-methyl-6-(5-methyl-[1,3,4]oxadiazol-2-yl)-7H-pyrrolo[2,3d]pyrimidin-2-yl]-(5-piperazin-1-yl-pyridin-2-yl)-amine], for which the IC50 was below 10 µM in assay [2] (setting [6]), below 1000 nM in assay [3] and below 10 µM in assay [4].

In the case of `Cc1c(C(N)=O)n(C2CCCC2)c2nc(Nc3ccc(N4CCNCC4)cn3)ncc12` [Example 391], the IC50 in assay [2] (setting [6]) is above 10 µM; in assay [3], below 1000 nM; in assay [4], above 10 µM.

`CCC(CC)n1cc(C)c2cnc(Nc3ccc(C(=O)NC4CCCC4)cc3)nc21` [Example 319]: the IC50 in assay [1] (setting [5]) was above 10 µM.

As to `Cc1c(C#N)n(C2CCCC2)c2nc(Nc3ccc(N4CCC(N(C)C)CC4)cn3)ncc12` [Example 394], the IC50 in assay [2] (setting [6]) is above 10 µM; in assay [3] it was below 1000 nM; in assay [4] it was above 15 µM.

Take `Cc1cn(C2CCCC2)c2nc(Nc3ccc(CN4CCOCC4)cc3)ncc12` [Example 313]: the values for the IC50 in assay [2] (setting [6]), in assay [3] and in assay [4] were below 10 µM, below 1000 nM and below 10 µM, respectively.

As to `CCC(CC)N1C(=O)Cc2cnc(Nc3ccc(N4CCNCC4)cc3)nc21`, in assay [1] (Table C, read-out: CDK4 IC50), the IC50 is below 10 µM.

Take `CCC(CC)n1ccc2cnc(Nc3ccc(C4CCCN(C(=O)CC#N)C4)cc3)nc21` (centres unmarked) [Example 215]: the IC50 in assay [1] (setting [5]) is above 10 µM.

For the compound `CN(C)C(=O)c1cc2cnc(Nc3ccc(N4CCNCC4)cc3)nc2n1C1CCCC1` [Example 338], the IC50 in assay [2] (setting [6]) was below 10 µM; in assay [3] it was below 1000 nM; in assay [4], below 10 µM.

`CN(C)C(=O)c1cc2cnc(Nc3ccc(CN4CCNCC4)cc3)nc2n1C1CCCC1` [Example 339]: the IC50 in assay [2] (setting [6]) was above 10 µM; in assay [3], below 1000 nM; in assay [4] it was above 10 µM.

Regarding `Cc1cn(C2CCCC2)c2nc(Nc3ccc(N4CCCCC4)nc3)ncc12` [Example 284], the IC50 is above 15 µM in assay [2] (setting [6]), above 10000 nM in assay [3] and above 15 µM in assay [4].

For `Cc1cn(C2CCCC2)c2nc(NN3CCN(C)CC3)ncc12` [Example 306], the IC50 was above 10 µM in assay [2] (setting [6]), above 10000 nM in assay [3] and above 10 µM in assay [4].

For `CCN(CC)c1ccc(Nc2ncc3c(C)cn(C4CCCC4)c3n2)cc1` [Example 457], the IC50 in assay [2] (setting [6]) is above 10 µM; in assay [3], above 10000 nM; in assay [4], above 10 µM.
